The record followed here is patent US20220017471A1, “FUNCTIONALITY INDEPENDENT LABELING OF ORGANIC COMPOUNDS” (Shanghai Tech University, priority 2018, published 2022).

In assay [1] the target is T1, poly [ADP-ribose] polymerase 1 (PARP1) (Homo sapiens, UniProt P09874).
T1 construct: purchased Sino Biological 11040-H08B
Put plainly: nDEL affinity selection against PARP-1 (enrichment fold by deep sequencing). The class given is binding. Conditions: ratio of normalized sequencing counts in presence and absence of target protein; DNA-encoded compound. The protocol:
(§1) The his-tag fused recombinant human PARP-1 (Sino Biological, Cat. #11040-H08B) and human-HSP70 (Sino Biological, Cat. #11660-H07H) were obtained from commercial source. The panning procedure for these two soluble protein were the same. 5 μg of target protein was mixed with Ni-charged MagBeads (GenScript, Cat. #L00295), 5 nM DEL library and 10 μg/mL Salmon sperm DNA. The final volume to adjusted to 100 μL. The mixture was rotated at room temperature for 1.5 h. After washing 5 times by phosphate-buffered saline supplemented 0.05% Tween-20 (PBST), the target protein binding chemical-DNA conjugations were eluted by heating at 95° C. for 10 min in 50 μL elution buffer (20 mM Tris, pH 7.4, 100 mM NaCl). The eluted DEL compounds were amplified by PCR using Takara PrimerSTAR Max DNA Polymerase (Takara, Cat. #R045A). Then the excess primers was removed by Hieff NGS™ smarter DNA clean beads (Yeasen, Cat. #12600E503) and evaluated on 4% DNA agarose gel. The amplified products was subjected for high-throughput sequencing using Illumina HiSeq X10 Analyzer.
The combinatorial chemical library was constructed by three building block sub libraries, containing 6, 46 and 46 chemical building blocks respectively for the first, second and third building block libraries, respectively. Each building block was encoded by a 10-base pair (bp) DNA sequence. The natural products were encoded by a 30-bp DNA sequence, same length as the combinatorial chemical library DNA codes. All the possible combinations (combinatorial chemical compounds) between these three sub libraries were generated by an inhouse java program, which generated a reference DNA encoding library contains 12696 DNA encoding sequences. After sequencing, the Illumina adaptors around the DNA coding sequences were trimmed by CLC genomics workbench version 12 (Qiagen). The left DNA coding sequences were 30 bp in length corresponding to the three DNA sequences of building blocks in 3 rounds of “split-pool” iterations. For each sample, the DNA coding sequences were mapped to the reference DNA encoding compound library. No mismatch was allowed in the mapping. The coding sequences were counted for all the compounds across different samples. The total read-counts of all the compounds in a given sample were calculated. The read-counts for each individual compound were divided by the total counts, multiplied with a constant of 100000.
(§2) NormalizedCountCompoundM,SampleA=CountCompoundM,SampleA/(TotalCountSampleA)*100000
The fold changes of each compound in the after-selection library comparing to the reference library were calculated. For example, if SampleA and Reference library were compared, for the fold change of CompoundM was calculated as:
(§3) FoldChangeCompoundM=NormalizedCountCompoundM,SampleA/NormalizedCountCompoundM,Ref
(§4) The hit criteria of nDEL screening take into account of both the normalized enrichment fold values (y-axis) and deep sequencing read counts (x-axis). Compounds with read counts less than 10 are considered unreliable, thus they are eliminated immediately from DEL before on-target screening. For each DEL library, a baseline enrichment fold is recorded in the absence of target protein, and a normalized enrichment fold value can be calculated for each DEL compound in the library. The cutoff for hits identification is based on a simplified statistical analysis of a highly diverse population of data, which is the sum of average value of enrichment-folds of the whole library (μ) plus 3 times of the standard deviation (σ).
Two target proteins with different cellular locations and biophysical properties were used in nDEL screens. […] The known functional binders for these targets were included in nDEL as internal positive controls, e.g., oridonin for HSP70 and derivatives of olaparib (F001, F002, F003 and F006) for PARP-1.

Assay [2] has as its target T2, heat shock 70 kDa protein (HSP70) (Homo sapiens, UniProt P0DMV8).
T2 construct: purchased Sino Biological 11660-H07H
Put plainly: nDEL affinity selection against HSP70 (enrichment fold by deep sequencing). It counts as binding. The settings on record: ratio of normalized sequencing counts in presence and absence of target protein; DNA-encoded compound. The protocol:
as §1, with “The” for “The his-tag fused recombinant human PARP-1 (Sino Biological, Cat. #11040-H08B) and human-HSP70 (Sino Biological, Cat. #11660-H07H) were obtained from commercial source. The”
The combinatorial chemical library was constructed by three building block sub libraries, containing 6, 46 and 46 chemical building blocks respectively for the first, second and third building block libraries, respectively. Each building block was encoded by a 10-base pair (bp) DNA sequence. The natural products were encoded by a 30-bp DNA sequence, same length as the combinatorial chemical library DNA codes. […] After sequencing, the Illumina adaptors around the DNA coding sequences were trimmed by CLC genomics workbench version 12 (Qiagen). The left DNA coding sequences were 30 bp in length corresponding to the three DNA sequences of building blocks in 3 rounds of “split-pool” iterations. For each sample, the DNA coding sequences were mapped to the reference DNA encoding compound library. No mismatch was allowed in the mapping. The coding sequences were counted for all the compounds across different samples. The total read-counts of all the compounds in a given sample were calculated. The read-counts for each individual compound were divided by the total counts, multiplied with a constant of 100000.
as §2
The fold changes of each compound in the after-selection library comparing to the reference library were calculated.
as §3, §4
Two target proteins with different cellular locations and biophysical properties were used in nDEL screens. […] The known functional binders for these targets were included in nDEL as internal positive controls, e.g., oridonin for HSP70 and derivatives of olaparib (F001, F002, F003 and F006) for PARP-1. To account for the non-uniform distribution of DNA barcodes in nDEL, a blank screen of nDEL in the absence of target proteins but presence of immobilization matrix beads was carried out first and followed by deep-sequencing to establish the baseline distribution of barcodes in the library. All screening data were analyzed using the method described by Decurtins et al., Nat Protoc. […] The corresponding DNA sequence of each nDEL compound were tallied based on its sequencing counts. The enrichment fold is calculated as the ratio of normalized sequencing counts in the presence and absence of target protein.

With `CC1=CC(=O)c2c(O)cccc2C1=O` [Plumbagin], the “Fold Change, enrichment folds for PARP-1 binder selection” value in assay [1] was 2.97. Moreover, the “Enrichment Fold, HSP70 binder selection” value in assay [2] was determined as 4.4.

Regarding `COc1cc2ccc(=O)oc2cc1O` [Scopoletin], the “Fold Change, enrichment folds for PARP-1 binder selection” value in assay [1] is given as 2.82. Also, the “Enrichment Fold, HSP70 binder selection” value in assay [2] was 6.0.

On to `CNCC(O)c1ccc(O)cc1` (centres unmarked) [Synephrine], for which the “Fold Change, enrichment folds for PARP-1 binder selection” value in assay [1] stood at 2.17. Also, the “Enrichment Fold, HSP70 binder selection” value in assay [2] is on record as 3.2.

Regarding `Cn1cnc2c1c(=O)[nH]c(=O)n2C` [Theobromine, reference compound], the “Fold Change, enrichment folds for PARP-1 binder selection” value in assay [1] was 2.42. The “Enrichment Fold, HSP70 binder selection” value in assay [2] was 4.3.
